18 compounds from patent US9580416B2, “Inhibitors of Bruton's tyrosine kinase” (PHARMACYCLICS LLC, priority 2014, dated 2017) can be followed below.

Common to all, as to type: biochemical
The target of one test is Btk (Homo sapiens, UniProt Q06187). Nature of the test: Btk kinase activity, TR-FRET assay. To be noted: read-out: Btk (IC50). The procedure, abridged:
(§1)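 Enzyme (Btk 0.5 nM; Lck 6 nM) reacted 1 h with inhibitor, ATP at Km and biotin-peptide substrate in pH 7.4 buffer, 10% DMSO. Phosphopeptide detected by Eu-p-Tyr100 antibody plus streptavidin-APC (665/615 nm). IC50 calculated from fitted Ki(app) via ATP/Km correction plus half total enzyme.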

The target of a further test is Lck (Homo sapiens, UniProt P06239). Nature of the test: Lck kinase activity, TR-FRET assay. The following applies: read-out: LCK (IC50). A digest of the protocol: as §1
Chain of Lck (P06239 whole entry, species assumed): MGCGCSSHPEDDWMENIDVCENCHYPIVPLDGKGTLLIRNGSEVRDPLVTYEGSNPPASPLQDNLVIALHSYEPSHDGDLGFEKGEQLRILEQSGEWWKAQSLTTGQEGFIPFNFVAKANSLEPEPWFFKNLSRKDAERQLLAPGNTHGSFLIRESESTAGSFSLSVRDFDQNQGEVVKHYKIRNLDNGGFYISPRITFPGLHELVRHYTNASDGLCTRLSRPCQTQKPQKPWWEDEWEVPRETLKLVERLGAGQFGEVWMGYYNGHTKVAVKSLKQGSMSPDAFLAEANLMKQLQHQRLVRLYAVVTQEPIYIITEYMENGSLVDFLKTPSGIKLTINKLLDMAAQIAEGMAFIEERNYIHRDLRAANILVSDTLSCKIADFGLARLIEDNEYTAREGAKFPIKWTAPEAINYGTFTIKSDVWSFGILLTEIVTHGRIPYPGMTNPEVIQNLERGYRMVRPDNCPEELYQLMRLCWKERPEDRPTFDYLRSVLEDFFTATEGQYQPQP
In a further test the target is EGFR (Homo sapiens, UniProt P00533). Nature of the test: Inhibition of a panel of kinases, in vitro HotSpot kinase assay: EGFR. Here is the method:
(§2) The degree of inhibition of a panel of kinases is determined using the in vitro HotSpot kinase assay (purified enzymes, ^33P-ATP, an appropriate substrate and 1 uM ATP).

The target in another test is T1, JAK3 (Homo sapiens, UniProt P52333).
T1 sequence (P52333 1-1124): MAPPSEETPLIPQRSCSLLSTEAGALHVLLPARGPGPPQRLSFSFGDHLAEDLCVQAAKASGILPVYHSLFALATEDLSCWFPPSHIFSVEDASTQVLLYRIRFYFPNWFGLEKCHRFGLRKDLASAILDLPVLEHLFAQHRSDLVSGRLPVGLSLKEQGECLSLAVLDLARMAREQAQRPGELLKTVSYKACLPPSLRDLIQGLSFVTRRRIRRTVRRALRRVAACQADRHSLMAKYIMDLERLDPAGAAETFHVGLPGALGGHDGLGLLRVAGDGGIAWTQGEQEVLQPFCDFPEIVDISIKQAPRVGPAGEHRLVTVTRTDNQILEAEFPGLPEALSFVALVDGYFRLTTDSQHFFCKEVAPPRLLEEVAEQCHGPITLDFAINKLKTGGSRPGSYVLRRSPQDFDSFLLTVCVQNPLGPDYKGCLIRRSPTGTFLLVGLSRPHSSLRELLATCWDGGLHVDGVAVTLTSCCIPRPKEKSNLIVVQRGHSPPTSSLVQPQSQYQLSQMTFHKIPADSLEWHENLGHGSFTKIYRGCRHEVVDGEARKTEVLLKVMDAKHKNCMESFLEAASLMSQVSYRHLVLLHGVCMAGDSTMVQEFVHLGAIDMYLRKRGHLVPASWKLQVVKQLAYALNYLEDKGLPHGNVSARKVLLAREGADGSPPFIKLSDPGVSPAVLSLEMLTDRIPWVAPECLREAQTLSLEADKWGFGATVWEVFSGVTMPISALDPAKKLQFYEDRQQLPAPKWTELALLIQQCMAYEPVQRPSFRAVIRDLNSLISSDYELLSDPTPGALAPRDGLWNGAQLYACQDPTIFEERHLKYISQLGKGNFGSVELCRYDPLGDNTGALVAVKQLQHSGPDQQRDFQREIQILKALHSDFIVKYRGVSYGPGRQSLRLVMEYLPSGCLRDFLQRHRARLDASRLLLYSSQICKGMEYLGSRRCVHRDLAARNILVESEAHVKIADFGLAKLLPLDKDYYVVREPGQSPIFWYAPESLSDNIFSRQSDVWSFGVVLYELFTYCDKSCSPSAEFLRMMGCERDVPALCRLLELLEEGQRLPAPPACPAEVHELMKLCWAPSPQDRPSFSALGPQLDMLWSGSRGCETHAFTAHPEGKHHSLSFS
Nature of the test: Inhibition of a panel of kinases, in vitro HotSpot kinase assay: JAK3. Here is the method: as §2

Chain of Btk (Q06187 whole entry): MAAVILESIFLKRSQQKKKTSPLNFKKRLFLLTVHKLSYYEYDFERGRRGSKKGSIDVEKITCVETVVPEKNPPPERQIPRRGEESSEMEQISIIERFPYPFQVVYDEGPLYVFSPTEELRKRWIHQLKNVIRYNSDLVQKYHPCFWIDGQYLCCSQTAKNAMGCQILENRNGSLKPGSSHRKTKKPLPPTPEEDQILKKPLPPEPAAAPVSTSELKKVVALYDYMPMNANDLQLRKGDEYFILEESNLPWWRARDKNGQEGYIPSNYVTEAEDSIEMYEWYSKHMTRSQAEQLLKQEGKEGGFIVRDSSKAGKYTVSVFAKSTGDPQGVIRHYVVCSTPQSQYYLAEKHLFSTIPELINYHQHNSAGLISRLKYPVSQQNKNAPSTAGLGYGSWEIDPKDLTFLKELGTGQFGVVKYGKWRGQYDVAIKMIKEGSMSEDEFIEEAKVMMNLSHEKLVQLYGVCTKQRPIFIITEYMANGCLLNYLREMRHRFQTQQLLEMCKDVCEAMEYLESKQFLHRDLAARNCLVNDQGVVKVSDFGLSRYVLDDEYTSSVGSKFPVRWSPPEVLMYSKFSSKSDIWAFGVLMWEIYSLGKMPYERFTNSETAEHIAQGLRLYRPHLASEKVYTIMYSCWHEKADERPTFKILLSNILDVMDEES
Chain of EGFR (P00533 25-1210): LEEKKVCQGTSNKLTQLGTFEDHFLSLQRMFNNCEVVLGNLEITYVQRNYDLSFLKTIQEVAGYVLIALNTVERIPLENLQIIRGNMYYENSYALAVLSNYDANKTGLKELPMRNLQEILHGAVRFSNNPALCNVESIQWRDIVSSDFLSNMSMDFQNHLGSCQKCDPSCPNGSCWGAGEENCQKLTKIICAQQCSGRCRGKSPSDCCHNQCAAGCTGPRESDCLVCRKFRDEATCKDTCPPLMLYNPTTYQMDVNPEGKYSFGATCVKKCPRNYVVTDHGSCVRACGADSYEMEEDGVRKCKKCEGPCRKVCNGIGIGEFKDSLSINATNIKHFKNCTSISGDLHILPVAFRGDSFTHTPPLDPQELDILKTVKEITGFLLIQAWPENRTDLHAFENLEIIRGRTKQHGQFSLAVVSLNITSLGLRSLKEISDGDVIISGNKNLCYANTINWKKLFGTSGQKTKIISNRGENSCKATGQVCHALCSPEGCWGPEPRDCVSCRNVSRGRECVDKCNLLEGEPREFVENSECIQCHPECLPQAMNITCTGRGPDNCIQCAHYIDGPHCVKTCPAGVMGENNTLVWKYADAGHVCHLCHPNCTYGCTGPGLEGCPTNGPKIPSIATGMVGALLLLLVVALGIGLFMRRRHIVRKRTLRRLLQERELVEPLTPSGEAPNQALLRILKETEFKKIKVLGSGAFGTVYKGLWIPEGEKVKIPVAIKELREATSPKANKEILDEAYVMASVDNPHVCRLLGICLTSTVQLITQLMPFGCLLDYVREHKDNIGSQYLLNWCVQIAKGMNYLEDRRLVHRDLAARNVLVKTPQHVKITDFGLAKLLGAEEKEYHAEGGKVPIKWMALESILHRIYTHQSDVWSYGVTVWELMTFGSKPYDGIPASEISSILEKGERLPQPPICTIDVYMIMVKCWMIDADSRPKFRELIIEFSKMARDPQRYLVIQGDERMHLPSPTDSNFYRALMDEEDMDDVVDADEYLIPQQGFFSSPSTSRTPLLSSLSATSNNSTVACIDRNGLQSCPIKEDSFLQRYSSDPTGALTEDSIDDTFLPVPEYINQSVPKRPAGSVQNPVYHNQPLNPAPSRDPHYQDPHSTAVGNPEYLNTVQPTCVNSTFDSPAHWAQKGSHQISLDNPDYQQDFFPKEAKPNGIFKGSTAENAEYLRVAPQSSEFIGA

Broadly, the IC50 is the concentration at which inhibition is half-maximal. In the case of `Cc1ccnc(NC(=O)c2ccc(Oc3ccnc4[nH]nc(N[C@@H]5CCCN(C(=O)[C@@H]6CCCO6)C5)c34)cc2)c1` (single isomer, unassigned) [compound 94], the IC50 at Btk was below 0.1 µM; at Lck, 0.1 to 1 µM; at EGFR, 1 to 10 µM; against JAK3 it was above 10 µM.

On to `C=CC(=O)N1CCCC(Nc2n[nH]c3nccc(Oc4ccc(-c5ccc(C(F)(F)F)cn5)cc4)c23)C1` (stereo in doubt) [compound 196, 1-[(3S)-3-[(4-{4-[5-(trifluoromethyl)pyridin-2-yl]phenoxy}-1H-pyrazolo[3,4-b]pyridin-3-yl)amino]piperidin-1-yl]prop-2-en-1-one], for which the IC50 is 0.1 to 1 µM on Btk, above 10 µM on Lck, 1 to 10 µM against EGFR and 0.1 to 1 µM against JAK3.

Turning to `Cc1ccnc(NC(=O)c2ccc(Oc3ccnc4[nH]nc(N[C@@H]5CCCN(C(=O)C6(C)COC6)C5)c34)cc2)c1` [compound 86, 4-[(3-{[(3R)-1-(3-methyloxetane-3-carbonyl)piperidin-3-yl]amino}-1H-pyrazolo[3,4-b]pyridin-4-yl)oxy]-N-(4-methylpyridin-2-yl)benzamide], the results for the IC50 at Btk and against JAK3 were below 0.1 µM and above 10 µM, respectively.

On to `Cc1cc(NC(=O)c2cccc(Nc3ccnc4[nH]nc(N[C@@H]5CCCN(C(=O)C6CC6)C5)c34)c2)ccc1C(C)C` [compound 127, 3-[(3-{[(3R)-1-cyclopropanecarbonylpiperidin-3-yl]amino}-1H-pyrazolo[3,4-b]pyridin-4-yl)amino]-N-[3-methyl-4-(propan-2-yl)phenyl]benzamide], for which the figures for the IC50 on Btk, at Lck and against JAK3 were 0.1 to 1 µM, 1 to 10 µM and above 10 µM, respectively.

`C=CC(=O)N1CCC[C@@H](Nc2n[nH]c3nccc(Nc4cccc(C(=O)Nc5ccc(C(C)C)c(C)c5)c4)c23)C1` [compound 129, N-[3-methyl-4-(propan-2-yl)phenyl]-3-[(3-{[(3R)-1-(prop-2-enoyl)piperidin-3-yl]amino}-1H-pyrazolo[3,4-b]pyridin-4-yl)amino]benzamide]: the IC50 on Btk is below 0.1 µM; at Lck it was 1 to 10 µM; against JAK3, below 0.1 µM.

For `Cc1cc(NC(=O)c2cccc(Nc3ccnc4[nH]nc(N[C@@H]5CCCN(C(=O)c6ccc(F)cc6)C5)c34)c2)ccc1C(C)C` [compound 130, 3-[(3-{[(3R)-1-(4-fluorobenzoyl)piperidin-3-yl]amino}-1H-pyrazolo[3,4-b]pyridin-4-yl)amino]-N-[3-methyl-4-(propan-2-yl)phenyl]benzamide], the IC50 on Btk is 0.1 to 1 µM; at Lck, above 10 µM; against JAK3, above 10 µM.

For `CC(=O)N1CCC[C@@H](Nc2n[nH]c3nccc(Nc4cccc(C(=O)Nc5ccc(C(C)C)c(C)c5)c4)c23)C1` [compound 131, 3-[(3-{[(3R)-1-acetylpiperidin-3-yl]amino}-1H-pyrazolo[3,4-b]pyridin-4-yl)amino]-N-[3-methyl-4-(propan-2-yl)phenyl]benzamide], the IC50 is 0.1 to 1 µM on Btk, 1 to 10 µM at Lck and above 10 µM at JAK3.

For `CCNC(=O)N1CCC[C@@H](Nc2n[nH]c3nccc(Oc4ccc(Oc5ccccc5)cc4C)c23)C1` [compound 235, (3R)-N-ethyl-3-{[4-(2-methyl-4-phenoxyphenoxy)-1H-pyrazolo[3,4-b]pyridin-3-yl]amino}piperidine-1-carboxamide], the IC50 was below 0.1 µM on Btk, 1 to 10 µM at EGFR and above 10 µM against JAK3.

Regarding `COCCNc1n[nH]c2nccc(Oc3ccc(C(=O)Nc4cc(C(F)(F)F)ccn4)cc3)c12` [compound 236, 4-({3-[(2-methoxyethyl)amino]-1H-pyrazolo[3,4-b]pyridin-4-yl}oxy)-N-[4-(trifluoromethyl)pyridin-2-yl]benzamide], the values for the IC50 on Btk, against EGFR and against JAK3 were 0.1 to 1 µM, 1 to 10 µM and above 10 µM, respectively.

As for `Cc1ccnc(NC(=O)c2ccc(Oc3ccnc4[nH]nc(N[C@@H]5CCCN(C(=O)c6ncco6)C5)c34)cc2)c1` [compound 240, (R)—N-(4-methylpyridin-2-yl)-4-(3-(1-(oxazole-2-carbonyl)piperidin-3-ylamino)-1H-pyrazolo[3,4-b]pyridin-4-yloxy)benzamide], the results for the IC50 on Btk, at Lck and on JAK3 were below 0.1 µM, 0.1 to 1 µM and above 10 µM, respectively.

Take `Cc1ccnc(NC(=O)c2ccc(Oc3ccnc4[nH]nc(N[C@@H]5CCCN(C(=O)c6nccs6)C5)c34)cc2)c1` [compound 241, (R)—N-(4-methylpyridin-2-yl)-4-(3-(1-(thiazole-2-carbonyl)piperidin-3-ylamino)-1H-pyrazolo[3,4-b]pyridin-4-yloxy)benzamide]: the IC50 at Btk is below 0.1 µM; on Lck it was 0.1 to 1 µM; against JAK3, above 10 µM.

On to `Cc1ccnc(NC(=O)c2ccc(Oc3ccnc4[nH]nc(N[C@@H]5CCCN(C(=O)c6ncc[nH]6)C5)c34)cc2)c1` [compound 242, (R)-4-(3-(1-(1H-imidazole-2-carbonyl)piperidin-3-ylamino)-1H-pyrazolo[3,4-b]pyridin-4-yloxy)-N-(4-methylpyridin-2-yl)benzamide], for which the IC50 at Btk is below 0.1 µM; on Lck, 0.1 to 1 µM; against JAK3 it was above 10 µM.

Consider `Cc1ccnc(NC(=O)c2ccc(Oc3ccnc4[nH]nc(N[C@@H]5CCCN(C(=O)c6ccc(F)cc6)C5)c34)cc2)c1` [compound 243, (R)-4-(3-(1-(4-fluorobenzoyl)piperidin-3-ylamino)-1H-pyrazolo[3,4-b]pyridin-4-yloxy)-N-(4-methylpyridin-2-yl)benzamide], for which the results for the concentration for half-maximal inhibition (IC50) at Btk, on Lck and against JAK3 were below 0.1 µM, 1 to 10 µM and above 10 µM, respectively.

In the case of `Cc1ccnc(NC(=O)c2ccc(Oc3ccnc4[nH]nc(N[C@@H]5CCCN(C(=O)c6ccc(Cl)cc6)C5)c34)cc2)c1` [compound 244, (R)-4-(3-(1-(4-chlorobenzoyl)piperidin-3-ylamino)-1H-pyrazolo[3,4-b]pyridin-4-yloxy)-N-(4-methylpyridin-2-yl)benzamide], the IC50 was below 0.1 µM on Btk, 1 to 10 µM at Lck and above 10 µM against JAK3.

Turning to `Cc1ccc(C(=O)N2CCC[C@@H](Nc3n[nH]c4nccc(Oc5ccc(C(=O)Nc6cc(C)ccn6)cc5)c34)C2)cc1` [compound 245, (R)-4-(3-(1-(4-methylbenzoyl)piperidin-3-ylamino)-1H-pyrazolo[3,4-b]pyridin-4-yloxy)-N-(4-methylpyridin-2-yl)benzamide], the IC50 is below 0.1 µM on Btk, 1 to 10 µM on Lck and above 10 µM on JAK3.

In the case of `COc1ccc(C(=O)N2CCC[C@@H](Nc3n[nH]c4nccc(Oc5ccc(C(=O)Nc6cc(C)ccn6)cc5)c34)C2)cc1` [compound 246, (R)-4-(3-(1-(4-methoxybenzoyl)piperidin-3-ylamino)-1H-pyrazolo[3,4-b]pyridin-4-yloxy)-N-(4-methylpyridin-2-yl)benzamide], the IC50 on Btk was below 0.1 µM; on Lck, 1 to 10 µM; against JAK3 it was above 10 µM.

In the case of `Cc1ccnc(NC(=O)c2ccc(Oc3ccnc4[nH]nc(N[C@@H]5CCCN(C(=O)c6cccc(F)c6)C5)c34)cc2)c1` [compound 247, (R)-4-(3-(1-(3-fluorobenzoyl)piperidin-3-ylamino)-1H-pyrazolo[3,4-b]pyridin-4-yloxy)-N-(4-methylpyridin-2-yl)benzamide], the IC50 on Btk was below 0.1 µM; on Lck, 1 to 10 µM; against JAK3, above 10 µM.

For the compound `Cc1ccnc(NC(=O)c2ccc(Oc3ccnc4[nH]nc(N[C@@H]5CCCN(C(=O)c6ccccc6F)C5)c34)cc2)c1` [compound 248, (R)-4-(3-(1-(2-fluorobenzoyl)piperidin-3-ylamino)-1H-pyrazolo[3,4-b]pyridin-4-yloxy)-N-(4-methylpyridin-2-yl)benzamide], the half-maximal inhibitory concentration (IC50) on Btk was below 0.1 µM; on Lck, 1 to 10 µM; on JAK3, above 10 µM.
